Earlier results, collected in patent US20170360732A1, “Methods and Drug Therapies for Patency of Occluded Blood Vessels Following Angioplasty” (NephroGenesis, LLC, priority 2014, published 2017).
Read-outs that look alike come from different tables or passages of the source. Each block holds one compound with its values, some of them ahead of it.

Tests used:
[1] = not given; remark: listed apart in the source
[2] = system: Type I and Type IV collagen; conditions: 100 μM
[3] = target: T1, lysyl oxidase (Homo sapiens, UniProt P28300)
T1 sequence (P28300 169-417): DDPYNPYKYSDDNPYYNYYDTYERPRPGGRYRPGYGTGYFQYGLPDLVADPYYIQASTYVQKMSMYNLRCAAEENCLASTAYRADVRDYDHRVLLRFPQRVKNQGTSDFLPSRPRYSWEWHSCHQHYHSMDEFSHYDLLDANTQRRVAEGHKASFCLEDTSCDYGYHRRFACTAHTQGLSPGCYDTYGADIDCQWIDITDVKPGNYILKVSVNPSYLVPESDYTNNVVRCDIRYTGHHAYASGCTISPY

[4] = system: vascular smooth muscle cells; conditions: 100 μM, cultured cells
[5] = system: Type III collagen
[6] = not given; remark: listed apart in the source
[7] = system: peripheral blood monocytes
[8] = system: vascular smooth muscle cells; conditions: within 30 minutes
[9] = system: vessel restenosis following angioplasty; conditions: 28 days, rabbit model of atherosclerosis
[10] = system: arteries injured with balloon angioplasty; conditions: oral, 6 months, rabbit, vs controls

half-life (intravenous, patients with primary biliary cirrhosis): 1.43 h | peak plasma level ([1]; 750 mg oral, patients): 3.0 µg/mL | time to peak plasma level ([1]; 750 mg oral, patients): ≤ 3 h | plasma levels achieved with typical clinical uses ([1]; typical clinical uses of the drug): 3000 ng/mL
SMILES: CC(C)(S)[C@@H](N)C(=O)O [D-penicillamine]
side effects (intravenous administration): no reported side effects

inhibition of lysyl oxidase activity ([3]; 0.2 μM): up to 79% | inhibition of lysyl oxidase activity ([3]; 2.0 μM, 1 hour after drug administration): 90% | inhibition of lysyl oxidase activity ([3]; 2.0 μM, within 5 minutes): completely inhibited | inhibition of lysyl oxidase activity ([3]; 10 μM, within 15 minutes): 100% | maximum plasma concentration ([6]; intravenous infusion, 70 gms/m2 (approximately 140 gms), 1000 mg/min, oncology patients): 50 mM
SMILES: O=C1O[C@H]([C@@H](O)CO)C(O)=C1O [ascorbic acid]
increase of expression of Type I and Type IV collagen [2]: 200%-250% | reduction of vascular smooth muscle cell proliferation and migration [4]: up to 16% | stimulatory effect upon Type III collagen [5]: no stimulatory effect | side effects ([6]; rapid intravenous infusion, 70-110 gm/M^2, oncology patients): no significant side effects

blocking of lysyl oxidase-stimulated monocyte migration [7]: blocked
SMILES: NCCN [ethylenediamine]

SMILES: N#CCCN [β-aminopropionitrile]
blocking of lysyl oxidase-stimulated monocyte migration [7]: blocked | inhibition of migration of vascular smooth muscle cells [8]: 80% | reduction of vessel restenosis following angioplasty [9]: 33% | reduction in cross-sectional diameter of the arteries injured with balloon angioplasty [10]: 60%
